In US4229371A, “Ureylene naphthalene sulfonic acid intermediates” (American Cyanamid Company, priority 1978, dated 1980):
Counter-ions that a name gives are not always drawn. Like-named read-outs stand apart in the source and are kept apart here.

How the values were obtained:
activated human C1 = molecular target: T1, activated human C1 (Homo sapiens, UniProt P09871); experiment: Test, Code 026 (C1 inhibitor); assay type: biochemical; conditions: higher well number indicates higher activity
T1 construct: test of C2 destruction in presence of C4
Excerpt: (§1) An active inhibitor protects C2 from C1 and C4; (ii) Test, Code 035 (C3-C9 inhibitor)--This test determines the ability of the late components of human complement (C3-C9) to lyse EAC 142 in the presence of appropriate dilutions of the test compound. An active inhibitor protects EAC 142 from lysis by human C3-C9; (iii) Test, Code 036 (C-Shunt inhibitor)--In this test human erythrocytes rendered fragile are lysed in autologous serum via the shunt pathway activated by cobra venom factor in the presence of appropriate dilutions of the test compound. Inhibition of the shunt pathway results in failure of lysis; (iv) Forssman Vasculitis Test--Here, the well known complement dependent lesion, Forssman vasculitis, is produced in guinea pigs by intradermal injection of rabbit anti-Forssman antiserum. The lesion is measured in terms of diameter, edema and hemorrhage and the extent to which a combined index of these is inhibited by prior intraperitoneal injection of the test compound at 200 mg/kg is then reported, unless otherwise stated; (v) Forssman Shock Test--Lethan shock is produced in guinea pigs by an i.v. injection of anti-Forssman antiserum and the harmonic mean death time of treated guinea pigs is compared with that of simultaneous controls; (vi) Complement Level Reduction Test--In this test, the above dosed guinea pigs, or others, are bled for serum and the complement level is determined in undiluted serum by the capillary tube method of U.S. Pat. No. 3,876,376 and compared to undosed control guinea pigs; and (vii) Cap 50 Test--Here, appropriate amounts of the test compound are added to a pool of guinea pig serum in vitro, after which the undiluted serum capillary tube assay referred to above is run. The concentration of compound inhibiting 50% is reported.
(§2) *Code designation for tests employed as referred herein.
(§3) **Activity in wells a serial dilution assay. Higher well number indicates
(§4) higher activity. The serial dilutions are twofold.

[1] = system: late components of human complement (C3-C9); experiment: Test, Code 035 (C3-C9 inhibitor); assay type: cell-based; conditions: higher well number indicates higher activity
Excerpt: as §1, §2, §3, §4

[2] = system: shunt pathway activated by cobra venom factor; experiment: Test, Code 036 (C-Shunt inhibitor); assay type: cell-based, human; conditions: higher well number indicates higher activity
Excerpt: as §1, §2, §3, §4

whole complement = experiment: In vivo activity, complement level reduction in serum of dosed guinea pigs (capillary tube assay); parameters: species or system guinea pig
complement system = conditions: in words; literature; cited from earlier work
[3] = in words; literature; cited from earlier work
[4] = system: total hemolytic complement activity; conditions: human serum; in words; cited from earlier work
[5] = system: total hemolytic complement activity; conditions: human serum, in vitro; in words; cited from earlier work
[6] = Table I, activity in wells, twofold serial dilution assay
[7] = Table II (intermediates), twofold serial dilution
[8] = Table II, intraperitoneal, time 30 min.
[9] = Table II, intraperitoneal, time 60 min.
[10] = Table II, intraperitoneal, time 120 min.
[11] = Table II, intravenous, time 2 min.
[12] = Table II, intravenous, time 30 min.
[13] = Table II, intravenous, time 120 min.

T1 sequence (P09871 16-688): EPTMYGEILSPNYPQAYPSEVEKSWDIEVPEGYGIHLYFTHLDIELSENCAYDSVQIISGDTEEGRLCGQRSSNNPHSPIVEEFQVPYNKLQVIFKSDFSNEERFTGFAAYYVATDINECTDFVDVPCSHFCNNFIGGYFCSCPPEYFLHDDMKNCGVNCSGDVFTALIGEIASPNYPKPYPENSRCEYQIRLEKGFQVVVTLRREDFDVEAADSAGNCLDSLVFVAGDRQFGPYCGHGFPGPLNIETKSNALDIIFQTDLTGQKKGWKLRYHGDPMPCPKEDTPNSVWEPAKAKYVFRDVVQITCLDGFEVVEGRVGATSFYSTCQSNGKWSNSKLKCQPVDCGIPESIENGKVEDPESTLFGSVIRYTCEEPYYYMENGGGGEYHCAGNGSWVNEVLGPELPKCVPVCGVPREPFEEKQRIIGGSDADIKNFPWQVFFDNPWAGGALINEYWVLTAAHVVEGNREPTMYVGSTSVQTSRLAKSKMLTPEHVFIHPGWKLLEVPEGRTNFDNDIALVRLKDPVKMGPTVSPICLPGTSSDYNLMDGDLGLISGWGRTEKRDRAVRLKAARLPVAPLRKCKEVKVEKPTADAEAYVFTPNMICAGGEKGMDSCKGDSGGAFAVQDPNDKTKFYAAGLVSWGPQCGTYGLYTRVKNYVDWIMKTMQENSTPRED
T1 sequence (P00736 18-705 partner): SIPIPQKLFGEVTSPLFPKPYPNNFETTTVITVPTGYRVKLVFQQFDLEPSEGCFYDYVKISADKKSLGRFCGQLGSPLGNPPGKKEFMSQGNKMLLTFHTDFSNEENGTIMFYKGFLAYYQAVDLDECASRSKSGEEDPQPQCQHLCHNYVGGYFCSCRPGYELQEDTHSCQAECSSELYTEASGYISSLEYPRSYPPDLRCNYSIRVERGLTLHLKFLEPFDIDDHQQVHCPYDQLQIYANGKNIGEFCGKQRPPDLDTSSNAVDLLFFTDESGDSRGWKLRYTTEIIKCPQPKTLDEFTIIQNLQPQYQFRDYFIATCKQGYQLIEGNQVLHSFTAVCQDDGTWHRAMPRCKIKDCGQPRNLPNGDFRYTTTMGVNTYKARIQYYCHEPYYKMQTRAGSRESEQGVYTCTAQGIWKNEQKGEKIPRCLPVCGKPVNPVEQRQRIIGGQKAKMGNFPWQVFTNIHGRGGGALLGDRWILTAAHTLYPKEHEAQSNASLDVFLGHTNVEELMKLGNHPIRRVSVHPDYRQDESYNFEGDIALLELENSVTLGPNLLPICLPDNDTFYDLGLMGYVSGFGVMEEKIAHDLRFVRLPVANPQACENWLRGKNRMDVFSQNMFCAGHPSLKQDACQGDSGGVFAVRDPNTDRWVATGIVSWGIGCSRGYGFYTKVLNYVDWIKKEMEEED
T1 sequence (P02745 23-245 partner): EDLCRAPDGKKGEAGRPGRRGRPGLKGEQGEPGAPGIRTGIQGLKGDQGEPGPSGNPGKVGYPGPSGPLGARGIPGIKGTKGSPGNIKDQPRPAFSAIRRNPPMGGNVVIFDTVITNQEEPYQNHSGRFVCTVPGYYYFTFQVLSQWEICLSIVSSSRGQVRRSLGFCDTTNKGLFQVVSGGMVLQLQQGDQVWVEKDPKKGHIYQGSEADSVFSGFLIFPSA
T1 sequence (P02746 28-253 partner): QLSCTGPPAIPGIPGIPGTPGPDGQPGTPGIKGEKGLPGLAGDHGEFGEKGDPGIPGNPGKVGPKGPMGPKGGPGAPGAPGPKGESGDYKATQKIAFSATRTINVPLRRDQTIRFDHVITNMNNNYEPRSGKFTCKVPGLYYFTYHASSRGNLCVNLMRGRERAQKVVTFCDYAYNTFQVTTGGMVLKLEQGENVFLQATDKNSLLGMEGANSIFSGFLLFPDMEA
T1 sequence (P02747 29-245 partner): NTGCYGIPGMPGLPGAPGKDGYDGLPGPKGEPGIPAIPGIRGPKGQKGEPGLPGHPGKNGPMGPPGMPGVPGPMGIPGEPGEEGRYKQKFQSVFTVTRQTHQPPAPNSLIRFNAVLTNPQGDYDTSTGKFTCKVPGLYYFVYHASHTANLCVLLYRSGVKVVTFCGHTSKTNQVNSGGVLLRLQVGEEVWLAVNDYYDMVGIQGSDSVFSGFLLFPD

For O=C(Nc1ccc(C(=O)Nc2cc(C(=O)Nc3cc(S(=O)(=O)O)cc4cc(S(=O)(=O)O)cc(S(=O)(=O)O)c34)cc(C(=O)Nc3cc(S(=O)(=O)O)cc4cc(S(=O)(=O)O)cc(S(=O)(=O)O)c34)c2)c(S(=O)(=O)O)c1)Nc1ccc(C(=O)Nc2cc(C(=O)Nc3cc(S(=O)(=O)O)cc4cc(S(=O)(=O)O)cc(S(=O)(=O)O)c34)cc(C(=O)Nc3cc(S(=O)(=O)O)cc4cc(S(=O)(=O)O)cc(S(=O)(=O)O)c34)c2)c(S(=O)(=O)O)c1 [8,8',8",8'"Ureylenebis[(2-sulfo-4,1-phenylene)carbonylimino-s-phenenylbis(carbonylimino)]tetra-1,3,6-naphthalenetrisulfonic acid tetradecyl sodium salt], the “Cl 026 Wells” value (activated human C1; [6]) was “+8 Wells”, the “C-Late 035 Wells” value [1, 6] was “+5 Wells” and the “Shunt Inhibition 036 Wells” value [2, 6] was “+5 Wells”. For the same compound, the “In Vivo Activity (Guinea Pig) % Inhibition” value (whole complement; Table I, intravenous, 200 mg/kg, time 2 minutes) was -97%, the “In Vivo Activity (Guinea Pig) % Inhibition” value (whole complement; Table I, intravenous, 200 mg/kg, time 30 minutes) was -96% and the “In Vivo Activity (Guinea Pig) % Inhibition” value (whole complement; Table I, intravenous, 200 mg/kg, time printed 20 minutes) was -95%.

In the case of Nc1ccc(C(=O)Nc2cc(C(=O)Nc3cc(S(=O)(=O)O)cc4cc(S(=O)(=O)O)cc(S(=O)(=O)O)c34)cc(C(=O)Nc3cc(S(=O)(=O)O)cc4cc(S(=O)(=O)O)cc(S(=O)(=O)O)c34)c2)c(S(=O)(=O)O)c1 [8,8'-[5-(4-Amino-2-sulfobenzamido)-1,3-phenylenedicarbonylimino]di-1,3,6-naphthalenetrisulfonic acid heptasodium salt], the “Cl 026 Wells” value (activated human C1; [7]) is reported as “+6 Wells”, the “C-Late 035 Wells” value [1, 7] is reported as “+3 Wells” and the “Shunt Inhibition 036 Wells” value [2, 7] is reported as “+2 Wells”. For the same compound, the “In Vivo Activity (Guinea Pig) % Inhibition” value (whole complement; [8]) was -45%, the “In Vivo Activity (Guinea Pig) % Inhibition” value (whole complement; [9]) was -61% and the “In Vivo Activity (Guinea Pig) % Inhibition” value (whole complement; [10]) was -73%. For the same compound, the “In Vivo Activity (Guinea Pig) % Inhibition” value (whole complement; [11]) was -98%, the “In Vivo Activity (Guinea Pig) % Inhibition” value (whole complement; [12]) was -79% and the “In Vivo Activity (Guinea Pig) % Inhibition” value (whole complement; [13]) was -45%.

In the case of O=C(Nc1cc(S(=O)(=O)O)cc2cc(S(=O)(=O)O)cc(S(=O)(=O)O)c12)c1cc(NC(=O)c2ccc([N+](=O)[O-])cc2S(=O)(=O)O)cc(C(=O)Nc2cc(S(=O)(=O)O)cc3cc(S(=O)(=O)O)cc(S(=O)(=O)O)c23)c1 [8,8'-[5-(4-Nitro-2-sulfobenzamido)-1,3-phenylenedicarbonylimino]di-1,3,6-naphthalenetrisulfonic acid heptasodium salt], the “Cl 026 Wells” value (activated human C1; [7]) is reported as “+4 Wells”, the “C-Late 035 Wells” value [1, 7] is reported as “+2 Wells” and the “Shunt Inhibition 036 Wells” value [2, 7] is reported as “+1 Wells”. The “In Vivo Activity (Guinea Pig) % Inhibition” value (whole complement; [8]) was -40%, the “In Vivo Activity (Guinea Pig) % Inhibition” value (whole complement; [9]) was -55% and the “In Vivo Activity (Guinea Pig) % Inhibition” value (whole complement; [10]) was -74%. For the same compound, the “In Vivo Activity (Guinea Pig) % Inhibition” value (whole complement; [11]) was -91%, the “In Vivo Activity (Guinea Pig) % Inhibition” value (whole complement; [12]) was -59% and the “In Vivo Activity (Guinea Pig) % Inhibition” value (whole complement; [13]) was -51%.

In the case of Cc1ccc(C(=O)Nc2ccc(S(=O)(=O)O)c3cc(S(=O)(=O)O)cc(S(=O)(=O)O)c23)cc1NC(=O)c1cccc(NC(=O)Nc2cccc(C(=O)Nc3cc(C(=O)Nc4ccc(S(=O)(=O)O)c5cc(S(=O)(=O)O)cc(S(=O)(=O)O)c45)ccc3C)c2)c1 [Suramin], the “anticomplementary effect / complement inhibition” value (complement system) is listed as “competitive inhibitor of the complement system”.

In the case of Nc1ccc2cc(S(=O)(=O)O)cc(O)c2c1N=Nc1ccc(NC(=O)Nc2ccc(N=Nc3c(N)ccc4cc(S(=O)(=O)O)cc(O)c34)c(S(=O)(=O)O)c2)cc1S(=O)(=O)O [chlorazol fast pink, 3,3'-ureylenebis-[6-(2-amino-8-hydroxy-6-sulfo-1-naphthylazo)]benzenesulfonic acid, tetrasodium salt], the “anticomplementary effect / complement inhibition” value (complement system) is listed as “anticomplementary effect”.

For NCCCCCC(=O)O [epsilon-aminocaproic acid], the “success in the treatment of hereditary angioneurotic edema” value [3] is listed as “used with success in the treatment of hereditary angioneurotic edema”.

For NC[C@H]1CC[C@H](C(=O)O)CC1 [tranexamic acid], the “success in the treatment of hereditary angioneurotic edema” value [3] is listed as “used with success in the treatment of hereditary angioneurotic edema”.

For heparin, the “anticomplementary effect / complement inhibition” value (complement system) is given as “anticomplementary effect”.

In the case of pentosanpoly-sulfoester, the “anticomplementary activity (reduction in total hemolytic complement activity)” value [4] is given as “anticomplementary activity on human serum both in vitro and in vivo” and the “anticomplementary activity (reduction in total hemolytic complement activity)” value [5] is given as “anticomplementary activity on human serum both in vitro and in vivo”.
